According to patent US20230348953A1, “HIGH THROUGHPUT, FLUORESCENCE-BASED ESTERASE ACTIVITY ASSAY FOR ASSESSING POLYSORBATE DEGRADATION RISK DURING BIOPHARMACEUTICAL DEVELOPMENT” (GENENTECH, INC., priority 2020, published 2023):
“Also recorded” adds a separate entry of the source.

What was measured:
[1] = tested on: purified protein samples (mAbs 1-3); test: Substrate specificity, purified protein samples; assay type: biochemical, CHO and E. coli; settings: 0.5 mM substrate; mAbs 1-3 neat, 150-225 mg/ml
Description: (§1) The esterase activity assay monitors the conversion of the non-fluorescent substrates, 4-methylumbelliferyl fatty acid esters, to a fluorescent product, MU, through the cleavage of the ester bond. […] The concentration of each buffer component was selected based on in-house assay development studies (data not shown). A 50 mM tris chloride running buffer at pH 8.0 with 0.01% gum arabic was previously used to determine activity rates in a lipase and esterase activity assay (Nalder TD, et al., Biochimie. 2016;128-129:127-132).

PCL, LPLA2, PLBL2 = test: Substrate specificity, model enzymes; assay type: biochemical; settings: 0.5 mM substrate; PCL and LPLA2 20 ng/ml, PLBL2 400 µg/ml
Description: as §1

[2] = tested on: residual HCPs in purified mAb 1 sample; test: Orlistat inhibition, esterase activity assay with MU-C8; assay type: biochemical, CHO (Chinese Hamster Ovary); settings: orlistat 0.5, 1 and 10 µM vs DMSO control; mAb 1 25 mg/ml during incubation; MU-C8 substrate
Description: (§2) The esterase activity assay monitors the conversion of the non-fluorescent substrates, 4-methylumbelliferyl fatty acid esters, to a fluorescent product, MU, through the cleavage of the ester bond. The reaction mixture contained 80 µl of reaction buffer (150 mM tris chloride pH 8.0, 0.25% (w/v) Triton X-100 and 0.125% (w/v) gum arabic), 10 µl substrate at 1 mM final concentration, and 10 µl model enzyme solution or protein samples. The concentration of each buffer component was selected based on in-house assay development studies (data not shown). […]
(§3) Model enzymes were diluted in water to the desired concentrations. […] The reaction was set up in 96-well plates and the increase of fluorescence signal (using excitation and emission wavelengths of 355 nm and 460 nm, respectively) was monitored every 10 minutes by incubating the reaction plates for two hours at 37° C. in a plate reader. Rate of production of MU, representing the total hydrolytic activity (from enzymatic and non-enzymatic hydrolysis), was derived from the slope of the fluorescence time course from 30 minutes to 120 minutes, and is denoted by the reaction raw rate (kraw). […]
(§4) Orlistat stock solution in DMSO was freshly prepared for each inhibition reaction. […] Rates were adjusted for background fluorescence as measured by the enzyme blank (negative control) wells. […]

[3] = tested on: residual hydrolytic HCPs in affinity chromatography purified mAb 2 sample (PS20 degradation); test: Orlistat incubation, PS20 degradation by FFA (lauric acid) release in mAb 2 sample; assay type: biochemical, CHO (Chinese Hamster Ovary); settings: mAb2 sample, PS20 0.04%, 25° C. 12 days, relative to samples without orlistat
Description: (§5) To investigate the effect of orlistat on PS20 degradation, affinity chromatography purified samples of mAb 2 (28 mg/mL), mAb 6 (22 mg/ml) and mAb 7 (22 mg/ml) were incubated for 5 hours at room temperature in the presence of DMSO (10% v/v) with orlistat (0.2 µM and 20 µM) or without orlistat. The samples were then spiked with PS20 (0.04% v/v) and methionine (20 mg/ml) and incubated at 25° C. for 12 days. After incubation, the samples were analyzed for PS20 hydrolytic degradation by quantifying the FFA degradant (lauric acid) as previously described in detail (Cheng Y, et al., J Pharm Sci. 2019;108(9):2880-2886).

[4] = target: T1, carboxylesterase 1 (CES1) (Homo sapiens, UniProt P23141); settings: cited from earlier work
T1 sequence (P23141 18-567): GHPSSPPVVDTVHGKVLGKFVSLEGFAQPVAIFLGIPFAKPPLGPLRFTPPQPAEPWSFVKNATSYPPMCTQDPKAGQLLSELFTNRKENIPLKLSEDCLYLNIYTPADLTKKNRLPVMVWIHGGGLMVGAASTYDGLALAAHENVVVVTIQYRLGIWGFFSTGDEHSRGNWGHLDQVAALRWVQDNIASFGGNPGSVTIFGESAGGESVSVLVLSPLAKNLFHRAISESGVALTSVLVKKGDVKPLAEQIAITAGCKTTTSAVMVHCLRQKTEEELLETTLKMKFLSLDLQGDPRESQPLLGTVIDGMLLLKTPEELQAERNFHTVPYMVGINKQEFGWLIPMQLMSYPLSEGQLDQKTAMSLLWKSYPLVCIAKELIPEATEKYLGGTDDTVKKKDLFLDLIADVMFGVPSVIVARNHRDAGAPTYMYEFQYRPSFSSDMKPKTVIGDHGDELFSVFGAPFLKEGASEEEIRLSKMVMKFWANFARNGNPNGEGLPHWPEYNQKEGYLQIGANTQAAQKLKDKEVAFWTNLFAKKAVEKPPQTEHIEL

[5] = tested on: residual hydrolytic HCPs in affinity chromatography purified mAb 6 sample (PS20 degradation); test: Orlistat incubation, PS20 degradation by FFA (lauric acid) release in mAb 6 sample; assay type: biochemical, CHO (Chinese Hamster Ovary); settings: mAb6 sample, PS20 0.04%, 25° C. 12 days, relative to samples without orlistat
Description: as §5

[6] = target: T2, Pseudomonas cepacia lipase (PCL) (Burkholderia cepacia, UniProt P22088); test: Orlistat inhibition, esterase activity assay with MU-C8; assay type: biochemical; settings: orlistat 0.5, 1 and 10 µM; PCL 50 ng/ml; MU-C8 substrate
T2 construct: purchased Sigma Aldrich
Description: as §2, §3, §4

[7] = tested on: lysosomal phospholipase A2 (LPLA2); test: as above; assay type: biochemical; settings: orlistat 0.5, 1 and 10 µM; LPLA2 50 ng/ml; MU-C8 substrate
Description: as §2, §3, §4

carboxylesterase 2 = target: T3, carboxylesterase 2 (Homo sapiens, UniProt O00748); settings: cited from earlier work
T3 sequence (O00748 27-559): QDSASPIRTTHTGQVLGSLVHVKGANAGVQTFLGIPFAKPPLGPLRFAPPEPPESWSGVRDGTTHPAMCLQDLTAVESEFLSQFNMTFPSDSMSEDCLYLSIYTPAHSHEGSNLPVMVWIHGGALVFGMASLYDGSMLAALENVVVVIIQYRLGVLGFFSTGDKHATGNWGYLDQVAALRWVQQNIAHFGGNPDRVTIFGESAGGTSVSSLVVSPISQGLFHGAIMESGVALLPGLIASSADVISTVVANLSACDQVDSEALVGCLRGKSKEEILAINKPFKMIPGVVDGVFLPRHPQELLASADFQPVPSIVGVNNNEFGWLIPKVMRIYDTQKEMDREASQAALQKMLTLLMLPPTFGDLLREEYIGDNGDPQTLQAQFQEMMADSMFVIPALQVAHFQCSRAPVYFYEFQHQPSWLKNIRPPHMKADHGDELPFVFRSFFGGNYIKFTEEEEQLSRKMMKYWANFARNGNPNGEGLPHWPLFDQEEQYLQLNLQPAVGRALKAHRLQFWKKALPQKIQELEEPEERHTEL

[8] = tested on: residual hydrolytic HCPs in affinity chromatography purified mAb 7 sample (PS20 degradation); test: Orlistat incubation, PS20 degradation by FFA (lauric acid) release in mAb 7 sample; assay type: biochemical, CHO (Chinese Hamster Ovary); settings: mAb7 sample, PS20 0.04%, 25° C. 12 days, relative to samples without orlistat
Description: as §5

T2 sequence (P22088 45-364): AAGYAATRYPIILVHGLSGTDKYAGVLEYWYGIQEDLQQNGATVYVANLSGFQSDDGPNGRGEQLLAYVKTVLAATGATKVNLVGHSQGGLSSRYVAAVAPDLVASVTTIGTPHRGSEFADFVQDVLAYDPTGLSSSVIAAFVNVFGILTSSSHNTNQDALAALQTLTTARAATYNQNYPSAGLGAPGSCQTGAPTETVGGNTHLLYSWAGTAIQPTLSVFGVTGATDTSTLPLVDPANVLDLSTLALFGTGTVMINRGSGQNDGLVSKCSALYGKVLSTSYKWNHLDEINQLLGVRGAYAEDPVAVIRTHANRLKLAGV

For `CCCCCCCC(=O)Oc1ccc2c(C)cc(=O)oc2c1` [MU-C8, 4-methylumbelliferyl caprylate], the “activity of purified protein samples towards MU ester substrate” value [1] was “most sensitivity” and the “hydrolysis of MU ester by model enzymes” value (PCL, LPLA2, PLBL2) was “hydrolyzed”.

With `CCCCCCCC/C=C\CCCCCCCC(=O)Oc1ccc2c(C)cc(=O)oc2c1` [MU-C18:1, 4-methylumbelliferyl oleate] the “activity of purified protein samples towards MU ester substrate” value [1] was “did not show activity”.

With `CCCCCCCCCC(=O)Oc1ccc2c(C)cc(=O)oc2c1` [MU-C10, 4-methylumbelliferyl decanoate] the “hydrolysis of MU ester by model enzymes” value (PCL, LPLA2, PLBL2) was “hydrolyzed”.

In the case of `CCCCCCCCCCC[C@@H](C[C@@H]1OC(=O)[C@H]1CCCCCC)OC(=O)[C@H](CC(C)C)NC=O` [orlistat, (S)-2-formylamino-4-methyl-pentanoic acid (S)-1-[[(2S,3S)-3-hexyl-4-oxo-2-oxetanyl]methyl]-dodecyl ester], the “reduction in esterase activity rate” value [2] was “dose-dependent reduction; also recorded: did not completely inhibit”, the “Decrease in FFA Release Rate (%)” value ([3]; orlistat 0.2 µM) was 31% and the “Decrease in FFA Release Rate (%)” value ([3]; orlistat 20 µM) was 63%. The “inhibition of carboxylesterase 1” value [4] was “lack of orlistat potency”, the “Decrease in FFA Release Rate (%)” value ([5]; orlistat 0.2 µM) was 67% and the “Decrease in FFA Release Rate (%)” value ([5]; orlistat 20 µM) was 91%. For the same compound, the “inhibition of esterase activity” value [6] was “complete inhibition”, the “inhibition of esterase activity” value [7] was “complete inhibition” and the “inhibition of carboxylesterase 2” value (carboxylesterase 2) was “significantly inhibited”. The “Decrease in FFA Release Rate (%)” value ([8]; orlistat 0.2 µM) was 39% and the “Decrease in FFA Release Rate (%)” value ([8]; orlistat 20 µM) was 74%.
